What all share (type): cell-based
Assay [1] concerns MCF-7 cells. In words: MTT cell viability assay, MCF-7 cells. As to conditions: Homo sapiens. How it is done: (§1) MCF-7, HeLa, and RAW264.7 cells were cultured in DMEM supplemented with 10% FBS and 1% penicillin/streptomycin. Cell culture was maintained at 37 °C in a 5% CO2 incubator.
(§2) The assessment of cell viability was performed using an MTT assay to assess the cytotoxic effects of CCL on MCF-7, Hela, and RAW264.7 cells. Initially, MCF-7, HeLa, and RAW264.7 cells were seeded onto 96-well plates at a density of 2 × 10^4 cells/mL. Following a 24-h incubation period, the culture medium was replaced with a serum-free medium containing specified concentrations of CCL, verbascoside, isoverbascoside, and hispidulin ranging from 12.5 to 1000 µg/mL. Following 24, 48, and 72 h of treatment, an MTT solution (0.5 mg/mL in culture medium) was added to each well and incubated at 37 °C for 2 h. The metabolically active cells converted MTT into formazan crystals, which were then dissolved in 100 µL of DMSO per well. Absorbance was recorded at 550 nm using a SpectraMax 3 microplate reader (Molecular Devices, San Jose, CA, USA). The IC50 values were determined using GraphPad Prism v.7.0 (La Jolla, CA, USA). Cell viability was assessed in comparison to untreated control cells using the following equation: Cell viability %=A550sample/A550control×100%
A general note: Tetrazolium dyes change colour on reduction, which living cells bring about.

Assay [2] relates to RAW 264.7 macrophages. The experiment in a line: MTT cell viability assay, RAW264.7 cells. As to conditions: Mus musculus. How it is done:
as §1, §2

The subject of assay [3] is HeLa cells. In words: MTT cell viability assay, HeLa cells. As to conditions: Homo sapiens. The protocol: as §1, §2

In brackets after ≈: the same amount, converted by molar mass. Like-named read-outs stand apart in the source and are kept apart here.

On to `COc1c(O)cc2oc(-c3ccc(O)cc3)cc(=O)c2c1O` [Hispidulin], for which the IC50 – broadly, the concentration at which inhibition is half-maximal – was 905 µg/mL (≈ 3010 µM) in assay [1] (MCF7, 24 h); 710 µg/mL (≈ 2370 µM) in assay [1] (MCF7, 48 h); 527 µg/mL (≈ 1760 µM) in assay [1] (MCF7, 72 h); 99.2 µg/mL (≈ 330 µM) in assay [2] (RAW264.7, 24 h); 120 µg/mL (≈ 401 µM) in assay [2] (RAW264.7, 48 h); 180 µg/mL (≈ 600 µM) in assay [2] (RAW264.7, 72 h). The IC50 was found to be 98.2 µg/mL (≈ 327 µM) in assay [3] (24 h), 119 µg/mL (≈ 397 µM) in assay [3] (48 h) and 311 µg/mL (≈ 1040 µM) in assay [3] (72 h).
For the molecule `C[C@@H]1O[C@@H](O[C@@H]2[C@@H](O)[C@H](OCCc3ccc(O)c(O)c3)O[C@H](CO)[C@H]2OC(=O)/C=C/c2ccc(O)c(O)c2)[C@H](O)[C@H](O)[C@H]1O` [Verbascoside], the IC50 in assay [1] (MCF7, MCF-7, 24 h, MTT, read-out: IC50) amounted to 186 µg/mL (≈ 297 µM); in assay [1] (MCF7, MCF-7, 48 h, MTT, read-out: IC50), 184 µg/mL (≈ 294 µM); in assay [1] (MCF7, MCF-7, 72 h, MTT, read-out: IC50), 173 µg/mL (≈ 277 µM); in assay [2] (RAW264.7, RAW 264.7, 24 h, MTT, read-out: IC50), 432 µg/mL (≈ 691 µM); in assay [2] (RAW264.7, RAW 264.7, 48 h, MTT, read-out: IC50), 446 µg/mL (≈ 714 µM); in assay [2] (RAW264.7, RAW 264.7, 72 h, MTT, read-out: IC50), 480 µg/mL (≈ 769 µM). Besides, the IC50 is 373 µg/mL (≈ 597 µM) in assay [3] (24 h, MTT, read-out: IC50); 291 µg/mL (≈ 466 µM) in assay [3] (48 h, MTT, read-out: IC50); 342 µg/mL (≈ 547 µM) in assay [3] (72 h, MTT, read-out: IC50).

Source of the values: publication PMC11943097, “Phytochemical Characterization and Anticancer Activity of Clerodendrum chinense Leaf Extract Against Breast and Cervical Cancer Cells” (International Journal of Molecular Sciences, 2025).
